Laboratory results reported in PMC5770958, “Dual Action of Mexiletine and Its Pyrroline Derivatives as Skeletal Muscle Sodium Channel Blockers and Anti-oxidant Compounds: Toward Novel Therapeutic Potential” (Frontiers in Pharmacology, 2018).
Where “and” joins values, the source holds several entries; their conditions need not be identical. Equal values may be shown once. Entries after “also recorded” stand apart in the source; their conditions may differ. Read-outs that look alike come from different tables or passages of the source.

Tests used:
[1] = tested on: skeletal-muscle sodium channels (NaV1.4); experiment: Voltage-clamp recordings of INa in single muscle fibers: tonic block and use-dependent block; assay type: cell-based, Rana Esculenta; details: for IC50: HP -100 mV to -20 mV; for BT/BUD (IC50 TB/IC50 UDB 10-Hz): ratio tonic to 10-Hz use-dependent block
[2] = tested on: skeletal-muscle sodium channels (NaV1.4); experiment: Voltage-dependent block of INa at HP -140 and -70 mV (resting and inactivated state affinity); assay type: cell-based, Rana Esculenta; details: for IC50: 0.3-Hz; for Ki: computed from Kr, K-70 and h∞ curve, read-out: Inactivated state block, calculated Ki
Text: The cut-end fiber was then bathed in an internal solution and mounted across three chamber partitions, which delineated four pools. Three strips of vaseline were applied over the fiber and carefully sealed to the fiber to reduce leakage. […] Four KCl/agar bridges electrodes connected the recording chamber to the voltage-clamp amplifier based on methods described by Hille and Campbell ([1976]). For recording sodium currents (INa), the solution in the pool A was replaced with the external solution and after about 10 min of equilibration the recordings were performed at 10°C. […] Particular care was taken to verify that no change occurred in the membrane area in pool A throughout the experiments. Sodium currents were recorded using an amplifier connected via a A/D and D/A Digidata 1,200 Interface (Axon) to a 486 DX2/66 personal computer and stored on the hard disk. The stimulation protocols and data acquisition were controlled by Clampex software (pClamp6; Axon Instruments, Foster City, CA, USA) (Mele et al., [2014]). The currents flowing in response to depolarizing command voltages were low pass filtered at 10 kHz (Frequency Devices, Haverhill, MA, USA), visualized on an oscilloscope and sampled at 20 kHz. When necessary, leak and capacities currents were subtracted by P/4 method. The acquired traces were analyzed offline using Clampfit software (pClamp6; Axon Instruments). […] The degree of use-dependent block was computed as the value of the steady-state INa, max at this point normalized to the current at the same point in the absence of drug. This parameter reflects the potency of the drug for blocking the channels under conditions of high-frequency stimulation (i.e., as occurs during myotonic action potential firing) (De Luca et al., [2003a],[b]). […] The concentration-dependence of the drug effect was calculated as the half-maximal blocking concentration (IC50) at −140 mV, which allowed calculation of the affinity constant for the resting state (Kr). […] The affinity constant of the drug for the inactivated channel (Ki) was the computed as described below. Steady-state inactivation (h∞) curves were determined by a cyclic protocol of pulse sequences. […] Muraglia et al., [2014]). All data were expressed as mean ± S.E.M. The IC50 values, in the various experimental conditions, were determined by using a non-linear least squares fit of the concentration-response curves to the following logistic equation: […] K is IC50; n is the logistic slope factor, and [drug] is the molar concentration of the compound (Talon et al., [2001]). […] Statistical significance of differences between pairs of mean values has been estimated by unpaired Student's t-test and considered significant for p < 0.05. Two-way ANOVA and Bonferroni post-hoc corrections have been used for multiple comparison of experimental data means. The statistical significance between IC50 values obtained from the fit was evaluated using a number of degrees of freedom equal to the total number of preparations determining each point of the curve minus the number of means determining the curve minus two for the free parameters. The measurements of ionization constants and lipophilicity were performed on a Sirius GLpKa analyzer for pH-metric pKa and LogP (Sirius Analytical Instruments Ltd-Forest Row-UK). Correlation analysis was evaluated by fitting the experimental data point to linear regression analysis. Nonlinear equation fitting and processing for data graphics were done by FigP Software (Biosoft, Cambridge, UK).

[3] = tested on: skeletal-muscle sodium channels (NaV1.4); experiment: Steady-state inactivation (h∞) curves of sodium channels; assay type: cell-based, Rana Esculenta; details: for Shift in the h∞ curves toward more negative potentials: 10 μM; for Vh1/2: 10 μM drug
Procedure: Steady-state inactivation (h∞) curves were determined by a cyclic protocol of pulse sequences.
(§1) The h∞ curves have been fitted with a single Boltzmann, and the potential at which 50% of the sodium channels were inactivated (Vh1/2) was calculated at the inflection point of the curves. Statistical significance of differences between pairs of mean values has been estimated by unpaired Student's t-test and considered significant for p < 0.05. Two-way ANOVA and Bonferroni post-hoc corrections have been used for multiple comparison of experimental data means. The statistical significance between IC50 values obtained from the fit was evaluated using a number of degrees of freedom equal to the total number of preparations determining each point of the curve minus the number of means determining the curve minus two for the free parameters. The measurements of ionization constants and lipophilicity were performed on a Sirius GLpKa analyzer for pH-metric pKa and LogP (Sirius Analytical Instruments Ltd-Forest Row-UK). Correlation analysis was evaluated by fitting the experimental data point to linear regression analysis. Nonlinear equation fitting and processing for data graphics were done by FigP Software (Biosoft, Cambridge, UK).
Fig. S2: Steady-state inactivation (h∞) curves were determined by a cyclic protocol of pulse […]
duration, and a test pulse to -20 mV for 10ms; after a pause of 3 s, the sequence was repeated 18-20 times with the prepulse potential value increased each time in 5 mV steps. A more quantitative estimate of the absolute affinity constant for the inactivated state (Ki) was obtained from the voltage dependent distribution of the channels in the resting (h) and inactivated state (1-h) obtained from […]

[4] = tested on: skeletal-muscle sodium channels (NaV1.4); experiment: Recovery from inactivation of drug-bound sodium channels; open channel block check; assay type: cell-based, Rana Esculenta; details: 3 and 10 μM
[5] = Ionization constants and lipophilicity (Sirius GLpKa analyzer); assay type: physicochemical; details: for pKa: amine group of the drugs; for logD: pH 7.4, calculated from LogP and pKa values, read-out: Log D7.4
Procedure: as §1

[6] = tested on: C2C12 cells; experiment: Cyto-protective effect against H2O2-induced oxidative stress (CCK-8); assay type: cell-based, Murine; details: for Cyto-protective effect: C2C12, 300 μM H2O2, drug 0.1-30 μM, 2 h before H2O2 plus 6 h
Procedure: (§2) Murine C2C12 skeletal muscle cells were cultured in DMEM supplemented with 10% fetal bovine serum, 1% penicillin, 1% streptomycin and 1% glutamine and were maintained at 37°C in 5% CO2/95% air. Cells obtained by sub-confluent cultures (about 70%) were seeded in 96 multiwell plate at a density of approximately 4.5 × 10^3 cells per well. Eighteen hours after seeding, either the cytotoxic effect of H2O2, mexiletine, Me5, their tetramethyl-pyrroline derivatives, and PP2 or the potential protective effect of all above mentioned compounds and N-acetyl cysteine (NAC) against the H2O2-induced oxidative stress has been investigated. […] To evaluate the cyto-protective effect of the drugs, C2C12 cells were incubated with the test compounds 2 h before the application of H2O2 at 300 μM and 1 mM, and then maintained for additional 6h. Two hours before absorbance lecture, 10 μl of Cell Counting Kit-8 pure solution (CCK-8 Alexis Biochemicals) was added into each well. The CCK-8 solution contains the monosodium salt of [2-(2-methoxy-4-nitrophenyl)-3-(4-nitrophenyl)-5-(2,4-disulfophenyl)-2H-tetrazolium (WST-8), which is reduced by cellular dehydrogenases to give a yellow colored product (formazan) absorbing at 450 nm. The quantity of formazan dye is directly proportional to the number of viable cells. Absorbance was measured at 450 nm with a microplate spectrophotometer (Victor V31420-40, PerkinElmer). This assay was successfully used to investigate on the mechanism of ion channel-regulated cell proliferation in cell lines (Tricarico et al., [2013]).
Fresh stock solutions of the test compounds were made daily and diluted in DMEM as required. Only for the tetramethyl-pyrroline derivatives and PP2, stock solutions in DMSO were prepared and then diluted in DMEM. The maximal concentration of DMSO in the diluted solutions was <0.2%. As expected, 0.2% DMSO had no effect on cell survival (data not shown). Accordingly, cell viability in the presence of drugs was expressed as percent change with respect to the cell treated with vehicle alone, after proper subtraction of blank absorbance.

[7] = tested on: C2C12 cells; experiment: Cell culture cytotoxicity assay (CCK-8), 8 h incubation; assay type: cell-based, Murine
Procedure: as §2, with “The CCK-8 solution contains the monosodium salt of [2-(2-methoxy-4-nitrophenyl)-3-(4-nitrophenyl)-5-(2,4-disulfophenyl)-2H-tetrazolium (WST-8), which is reduced by cellular dehydrogenases to give a yellow colored product (formazan) absorbing at 450 nm.” left out, “This assay was successfully used to investigate on the mechanism of ion channel-regulated cell proliferation in cell lines (Tricarico et al., [2013]).” left out
(§3) Fresh stock solutions of the test compounds were made daily and diluted in DMEM as required. […] Accordingly, cell viability in the presence of drugs was expressed as percent change with respect to the cell treated with vehicle alone, after proper subtraction of blank absorbance.
(§4) All data were expressed as mean ± S.E.M. The IC50 values, in the various experimental conditions, were determined by using a non-linear least squares fit of the concentration-response curves to the following logistic equation: Effect = −100/{1+(K/[drug])n}, where Effect is the percentage change of INa; −100 is the maximal percentage block of INa; K is IC50; n is the logistic slope factor, and [drug] is the molar concentration of the compound (Talon et al., [2001]). […] The h∞ curves have been fitted with a single Boltzmann, and the potential at which 50% of the sodium channels were inactivated (Vh1/2) was calculated at the inflection point of the curves. […]

[8] = as above; assay type: cell-based, Murine; details: mouse, C2C12 skeletal muscle cells, 8 h of incubation, read-out: Cytotoxic effect IC50
Procedure: as §2, with “The CCK-8 solution contains the monosodium salt of [2-(2-methoxy-4-nitrophenyl)-3-(4-nitrophenyl)-5-(2,4-disulfophenyl)-2H-tetrazolium (WST-8), which is reduced by cellular dehydrogenases to give a yellow colored product (formazan) absorbing at 450 nm.” left out, “This assay was successfully used to investigate on the mechanism of ion channel-regulated cell proliferation in cell lines (Tricarico et al., [2013]).” left out
as §3, §4

[9] = 0.3-Hz, 10°C, read-out: Tonic block IC50
[10] = 10-Hz trains, read-out: Use-dependent block 10-Hz IC50
[11] = HP -70 mV, read-out: Voltage-dependent block HP-70 mV IC50, K-70
[12] = HP -140 mV, resting state, read-out: Voltage-dependent block HP-140 mV IC50, Kr

Row | SMILES | IC50 [1, 9] [µM] | IC50 [1, 10] [µM] | IC50 [2, 11] [µM] | IC50 [2, 12] [µM] | Ki [2] [nM] | logP [5] | pKa [5] | logD [5] | Cyto-protective effect [6] | also measured
1 | Cc1cccc(C)c1OCC(NC(=O)C1=CC(C)(C)NC1(C)C)C(C)C (stereo not drawn) [CI16, N-{1-[(2,6-dimethylphenoxy)methyl]-2-methylpropyl}-2,2,5,5-tetramethyl-2,5-dihydro-1H-pyrrole-3-carboxamide] | 12.6 ± 0.2 | 0.6 ± 0.1 | 1.8 ± 0.4 | 7.7 ± 0.5 | 1800 | 3.2 ± 0.3 | 8.53 ± 0.01 | 2.1 ± 0.1 | remarkable cyto-protection; also recorded: a decrease in efficacy | Fold more potent than Me5, tonic block ([1]; Me5 ref De Luca et al., 2000): ~2 fold; Fold more potent than Me5, use-dependent block ([1]; Me5 ref De Luca et al., 2000): ~9 fold; BT/BUD (IC50 TB/IC50 UDB 10-Hz) [1]: 21; Shift in the h∞ curves toward more negative potentials [3]: 6.3 ± 1.1 mV; Vh1/2 [3]: -83.7±0.1 mV; Time constants for recovery from inactivation [4]: slowest time constants
2 | OO [H2O2] |  |  |  |  |  |  |  |  |  | IC50 ([7]; 8 h of incubation, read-out: Cytotoxic effect IC50): 292 ± 25 µM
3 | Cc1cccc(C)c1OCC(N)C(C)C (stereo not drawn) [Me5, 1-(2,6-dimethylphenoxy)-3-methyl-2-butanamine] |  |  |  |  |  | 2.72 ± 0.02 | 8.97 ± 0.03 | 1.1 ± 0.1 | moderate, albeit significant, cyto-protective effect | 
4 | Cc1cccc(C)c1OCC(C)N (stereo not drawn) [Mex, 2-(2,6-dimethylphenoxy)-1-amino-propanemethylethylamine, reference compound] | 75.3 ± 8 | 23.6 ± 2.8 | 1.9 ± 0.2 | 148 ± 20 | 2000 |  |  |  | moderate, albeit significant, cyto-protective effect | R (IC50 of Mex / IC50 of compound), tonic block [1]: 1; R (IC50 of Mex / IC50 of compound), use-dependent block 10-Hz [1]: 1; IC50 at 8 h [8]: 775 ± 88 µM
5 | CC(C)(C)n1nc(-c2ccc(Cl)cc2)c2c(N)ncnc21 [PP2] |  |  |  |  |  |  |  |  |  | Cytotoxicity compared with Mex and its analogs ([7]; 10-100 μM): more cytotoxic than Mex and its analogs
6 | Cc1cccc(C)c1OC[C@@H](C)N [R-Mex, reference compound] | 74 ± 8 | 31 ± 8 |  |  |  |  |  |  |  | 
7 | Cc1cccc(C)c1OC[C@H](C)N [S-Mex, reference compound] | 127 ± 2.8 | 32 ± 7 |  |  |  |  |  |  |  | 
8 | Cc1cccc(C)c1OCC(C)NC(=O)C1=CC(C)(C)NC1(C)C (stereo not drawn) [VM11, N-[2-(2,6-dimethylphenoxy)-1-methylethyl]-2,2,5,5-tetramethyl-2,5-dihydro-1H-pyrrole-3-carboxamide] | 23.4 ± 0.9 | 2 ± 0.1 | 4.5 ± 0.1 | 15.5 ± 0.6 | 4200 | 2.8 ± 0.1 | 8.5 ± 0.1 | 1.7 ± 0.1 | remarkable cyto-protection; also recorded: maintained the same cyto-protection observed between 3 and 30 μM | BT/BUD (IC50 TB/IC50 UDB 10-Hz) [1]: 11.7 and 12; R (IC50 of Mex / IC50 of compound), use-dependent block 10-Hz ([1]; relative potency toward Mex, racemic form): 12; Shift in the h∞ curves toward more negative potentials [3]: 3.6 ± 1.1 mV; Vh1/2 [3]: -82±0.3 mV; Cell protection ([6]; C2C12, 300 μM H2O2, drug 100 μM): 43.5 ± 2.03%
